Results as given in the kinase profiling compilation of Christmann-Franck et al. (2016).

Key:
Assay in all cases: KINOMEscan competition binding
Settings in all cases: compound 10.0 µM
CHEK1 (human) = CHEK1 (human) (UniProt O14757)
PIM3 (human) = PIM3 (human) (UniProt Q86V86)
[1] = biological target: JAK3 JH1 catalytic (human) (UniProt P52333)
DYRK2 (human) = DYRK2 (human) (UniProt Q92630)
STK35 (human) = STK35 (human) (UniProt Q8TDR2)
PLK1 (human) = PLK1 (human) (UniProt P53350)
CLK2 (human) = CLK2 (human) (UniProt P49760)
NLK (human) = NLK (human) (UniProt Q9UBE8)
CAMKK2 (human) = CAMKK2 (human) (UniProt Q96RR4)
CaMK1 (human) = CaMK1 (human) (UniProt Q14012)
TAOK2 (human) = TAOK2 (human) (UniProt Q9UL54)
FRK (human) = FRK (human) (UniProt P42685)
CHUK (human) = CHUK (human) (UniProt O15111)
CAMKK1 (human) = CAMKK1 (human) (UniProt Q8N5S9)
FLT4 (human) = FLT4 (human) (UniProt P35916)
DCLK1 (human) = DCLK1 (human) (UniProt O15075)
[2] = biological target: JAK1 JH1 catalytic (human) (UniProt P23458)
MAP4K1 (human) = MAP4K1 (human) (UniProt Q92918)
ERBB4 (human) = ERBB4 (human) (UniProt Q15303)
MYLK (human) = MYLK (human) (UniProt Q15746)
TEK (human) = TEK (human) (UniProt Q02763)
CDK8 (human) = CDK8 (human) (UniProt P49336)
IKBKB (human) = IKBKB (human) (UniProt O14920)
SBK1 (human) = SBK1 (human) (UniProt Q52WX2)
[3] = tested on: EGFR (human), P00533 [T790M/L858R]
CDC42BPG (human) = CDC42BPG (human) (UniProt Q6DT37)
PAK2 (human) = PAK2 (human) (UniProt Q13177)
RPS6KA4 KD2 (human) = RPS6KA4 KD2 (human) (UniProt O75676)
STK32A (human) = STK32A (human) (UniProt Q8WU08)
TAOK1 (human) = TAOK1 (human) (UniProt Q7L7X3)
CLK1 (human) = CLK1 (human) (UniProt P49759)
EPHB4 (human) = EPHB4 (human) (UniProt P54760)
PIM1 (human) = PIM1 (human) (UniProt P11309)
STK11 (human) = STK11 (human) (UniProt Q15831)
PRKAA2 (human) = PRKAA2 (human) (UniProt P54646)
IRAK4 (human) = IRAK4 (human) (UniProt Q9NWZ3)
NEK6 (human) = NEK6 (human) (UniProt Q9HC98)
MAPK6 (human) = MAPK6 (human) (UniProt Q16659)
CAMK2A (human) = CAMK2A (human) (UniProt Q9UQM7)
GRK1 (human) = GRK1 (human) (UniProt Q15835)
Chain of GRK1 (human) (Q15835 whole entry, looked up): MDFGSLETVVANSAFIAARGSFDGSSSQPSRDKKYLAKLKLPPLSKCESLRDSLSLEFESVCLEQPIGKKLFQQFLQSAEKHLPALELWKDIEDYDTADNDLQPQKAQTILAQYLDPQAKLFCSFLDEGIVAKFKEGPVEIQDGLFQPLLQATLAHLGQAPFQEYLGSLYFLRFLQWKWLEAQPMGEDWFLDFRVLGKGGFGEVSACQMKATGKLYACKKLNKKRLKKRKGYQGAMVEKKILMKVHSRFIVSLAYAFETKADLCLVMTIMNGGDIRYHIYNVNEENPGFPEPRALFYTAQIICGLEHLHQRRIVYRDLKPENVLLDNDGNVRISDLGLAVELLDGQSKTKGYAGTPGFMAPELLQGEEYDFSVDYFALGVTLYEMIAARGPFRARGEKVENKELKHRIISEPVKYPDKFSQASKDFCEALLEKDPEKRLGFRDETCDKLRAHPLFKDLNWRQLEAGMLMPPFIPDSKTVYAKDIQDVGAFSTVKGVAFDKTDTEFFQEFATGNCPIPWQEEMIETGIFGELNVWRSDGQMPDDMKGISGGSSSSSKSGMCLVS

Chain of MAP4K1 (human) (Q92918 whole entry, looked up): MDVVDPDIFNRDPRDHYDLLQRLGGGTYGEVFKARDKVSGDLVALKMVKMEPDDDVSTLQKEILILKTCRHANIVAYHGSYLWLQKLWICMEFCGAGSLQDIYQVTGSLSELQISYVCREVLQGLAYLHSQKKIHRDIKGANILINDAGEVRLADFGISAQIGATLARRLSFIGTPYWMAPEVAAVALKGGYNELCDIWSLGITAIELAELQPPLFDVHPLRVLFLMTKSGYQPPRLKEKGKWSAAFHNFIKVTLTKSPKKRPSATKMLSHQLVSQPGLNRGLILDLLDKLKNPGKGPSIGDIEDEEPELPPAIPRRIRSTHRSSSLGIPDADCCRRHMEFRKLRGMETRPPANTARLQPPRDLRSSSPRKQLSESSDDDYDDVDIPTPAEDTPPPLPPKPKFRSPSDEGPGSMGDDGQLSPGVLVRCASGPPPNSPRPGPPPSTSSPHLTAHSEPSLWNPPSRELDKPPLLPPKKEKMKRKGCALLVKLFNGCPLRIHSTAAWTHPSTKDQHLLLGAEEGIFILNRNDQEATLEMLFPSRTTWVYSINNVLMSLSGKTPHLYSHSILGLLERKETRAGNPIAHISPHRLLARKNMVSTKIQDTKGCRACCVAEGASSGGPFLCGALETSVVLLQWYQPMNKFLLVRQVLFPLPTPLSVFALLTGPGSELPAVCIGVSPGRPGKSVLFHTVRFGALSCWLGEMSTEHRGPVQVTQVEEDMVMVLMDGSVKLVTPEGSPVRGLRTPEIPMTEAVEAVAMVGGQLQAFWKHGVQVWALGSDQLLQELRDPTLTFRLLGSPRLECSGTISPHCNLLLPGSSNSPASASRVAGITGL
Chain of TAOK2 (human) (Q9UL54 whole entry, looked up): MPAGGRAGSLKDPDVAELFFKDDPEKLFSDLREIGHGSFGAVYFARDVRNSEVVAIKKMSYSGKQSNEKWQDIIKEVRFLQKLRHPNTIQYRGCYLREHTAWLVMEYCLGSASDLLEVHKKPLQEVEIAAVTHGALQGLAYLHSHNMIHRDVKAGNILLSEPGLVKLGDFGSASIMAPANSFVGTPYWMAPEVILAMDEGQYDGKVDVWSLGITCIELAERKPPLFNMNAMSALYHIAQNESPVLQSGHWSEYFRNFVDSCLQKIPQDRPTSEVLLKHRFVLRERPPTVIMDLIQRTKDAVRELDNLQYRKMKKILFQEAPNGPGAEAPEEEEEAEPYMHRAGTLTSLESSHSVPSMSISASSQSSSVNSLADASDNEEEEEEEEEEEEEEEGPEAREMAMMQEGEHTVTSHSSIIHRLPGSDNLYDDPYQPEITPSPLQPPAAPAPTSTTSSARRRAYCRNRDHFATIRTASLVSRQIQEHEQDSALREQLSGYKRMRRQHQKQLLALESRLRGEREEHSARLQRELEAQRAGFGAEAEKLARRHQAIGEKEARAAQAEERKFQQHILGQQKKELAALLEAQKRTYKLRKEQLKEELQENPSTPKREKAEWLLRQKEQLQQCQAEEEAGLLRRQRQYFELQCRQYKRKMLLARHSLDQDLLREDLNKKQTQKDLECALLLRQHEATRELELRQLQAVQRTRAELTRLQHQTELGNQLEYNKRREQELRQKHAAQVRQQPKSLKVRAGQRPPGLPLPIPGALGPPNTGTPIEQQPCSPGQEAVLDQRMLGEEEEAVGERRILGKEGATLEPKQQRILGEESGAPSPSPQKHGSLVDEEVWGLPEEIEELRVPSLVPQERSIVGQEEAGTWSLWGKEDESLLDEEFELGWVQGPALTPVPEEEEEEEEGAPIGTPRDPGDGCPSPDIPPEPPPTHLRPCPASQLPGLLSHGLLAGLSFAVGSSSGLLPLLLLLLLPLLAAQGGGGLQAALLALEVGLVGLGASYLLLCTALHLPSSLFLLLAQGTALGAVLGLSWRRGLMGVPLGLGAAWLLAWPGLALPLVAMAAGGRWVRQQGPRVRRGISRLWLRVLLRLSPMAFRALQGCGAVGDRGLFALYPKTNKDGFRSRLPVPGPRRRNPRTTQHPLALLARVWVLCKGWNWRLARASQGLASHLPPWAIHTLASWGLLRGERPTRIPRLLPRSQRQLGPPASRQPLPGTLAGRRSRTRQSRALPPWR
Chain of PAK2 (human) (Q13177 whole entry, looked up): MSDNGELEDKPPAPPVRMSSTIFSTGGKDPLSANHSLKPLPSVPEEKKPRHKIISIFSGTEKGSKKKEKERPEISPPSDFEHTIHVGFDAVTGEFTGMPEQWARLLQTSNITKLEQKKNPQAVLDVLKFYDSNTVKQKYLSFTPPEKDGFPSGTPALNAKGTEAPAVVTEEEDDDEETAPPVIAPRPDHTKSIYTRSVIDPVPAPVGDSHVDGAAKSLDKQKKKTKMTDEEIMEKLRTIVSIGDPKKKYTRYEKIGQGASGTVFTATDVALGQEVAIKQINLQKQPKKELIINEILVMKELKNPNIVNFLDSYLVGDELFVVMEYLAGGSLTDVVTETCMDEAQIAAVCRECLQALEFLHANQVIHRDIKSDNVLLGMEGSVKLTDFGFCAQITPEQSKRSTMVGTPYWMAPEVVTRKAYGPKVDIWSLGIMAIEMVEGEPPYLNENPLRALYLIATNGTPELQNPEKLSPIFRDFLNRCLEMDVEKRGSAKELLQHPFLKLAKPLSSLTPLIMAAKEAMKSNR
Chain of CHUK (human) (O15111 whole entry, looked up): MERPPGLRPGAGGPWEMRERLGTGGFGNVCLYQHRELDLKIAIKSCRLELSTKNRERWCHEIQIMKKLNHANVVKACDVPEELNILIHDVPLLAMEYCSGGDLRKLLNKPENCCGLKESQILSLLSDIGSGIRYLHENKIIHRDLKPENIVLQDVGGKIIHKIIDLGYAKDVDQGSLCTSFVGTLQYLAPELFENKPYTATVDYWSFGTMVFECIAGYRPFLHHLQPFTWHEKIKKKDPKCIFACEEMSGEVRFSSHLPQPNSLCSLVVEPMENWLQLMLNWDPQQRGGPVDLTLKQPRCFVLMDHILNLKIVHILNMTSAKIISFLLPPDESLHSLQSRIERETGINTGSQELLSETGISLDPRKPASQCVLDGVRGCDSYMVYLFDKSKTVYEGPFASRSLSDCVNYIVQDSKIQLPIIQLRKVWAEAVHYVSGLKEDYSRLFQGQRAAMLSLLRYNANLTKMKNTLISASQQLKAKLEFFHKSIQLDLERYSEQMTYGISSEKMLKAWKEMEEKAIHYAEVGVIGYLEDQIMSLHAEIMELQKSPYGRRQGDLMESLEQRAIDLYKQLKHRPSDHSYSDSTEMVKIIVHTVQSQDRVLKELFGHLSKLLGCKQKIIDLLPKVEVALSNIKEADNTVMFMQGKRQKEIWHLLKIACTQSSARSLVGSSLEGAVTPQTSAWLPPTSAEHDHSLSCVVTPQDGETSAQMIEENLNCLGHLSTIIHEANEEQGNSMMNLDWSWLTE
Chain of DYRK2 (human) (Q92630 whole entry, looked up): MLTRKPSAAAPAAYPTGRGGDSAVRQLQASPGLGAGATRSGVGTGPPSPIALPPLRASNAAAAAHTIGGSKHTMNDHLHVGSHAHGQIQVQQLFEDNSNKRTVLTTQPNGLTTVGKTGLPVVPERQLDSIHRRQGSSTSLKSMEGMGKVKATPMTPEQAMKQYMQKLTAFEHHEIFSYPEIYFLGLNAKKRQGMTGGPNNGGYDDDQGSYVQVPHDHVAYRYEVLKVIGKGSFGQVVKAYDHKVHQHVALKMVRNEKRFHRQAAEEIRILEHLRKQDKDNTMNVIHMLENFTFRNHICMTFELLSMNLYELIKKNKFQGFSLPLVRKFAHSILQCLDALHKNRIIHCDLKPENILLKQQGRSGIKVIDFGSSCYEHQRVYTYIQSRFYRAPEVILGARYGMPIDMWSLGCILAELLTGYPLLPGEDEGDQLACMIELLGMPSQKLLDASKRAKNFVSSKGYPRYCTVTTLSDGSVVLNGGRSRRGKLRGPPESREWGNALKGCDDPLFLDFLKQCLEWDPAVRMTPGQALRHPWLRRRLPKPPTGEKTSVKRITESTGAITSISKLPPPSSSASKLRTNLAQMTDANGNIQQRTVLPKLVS
Chain of CHEK1 (human) (O14757 whole entry, looked up): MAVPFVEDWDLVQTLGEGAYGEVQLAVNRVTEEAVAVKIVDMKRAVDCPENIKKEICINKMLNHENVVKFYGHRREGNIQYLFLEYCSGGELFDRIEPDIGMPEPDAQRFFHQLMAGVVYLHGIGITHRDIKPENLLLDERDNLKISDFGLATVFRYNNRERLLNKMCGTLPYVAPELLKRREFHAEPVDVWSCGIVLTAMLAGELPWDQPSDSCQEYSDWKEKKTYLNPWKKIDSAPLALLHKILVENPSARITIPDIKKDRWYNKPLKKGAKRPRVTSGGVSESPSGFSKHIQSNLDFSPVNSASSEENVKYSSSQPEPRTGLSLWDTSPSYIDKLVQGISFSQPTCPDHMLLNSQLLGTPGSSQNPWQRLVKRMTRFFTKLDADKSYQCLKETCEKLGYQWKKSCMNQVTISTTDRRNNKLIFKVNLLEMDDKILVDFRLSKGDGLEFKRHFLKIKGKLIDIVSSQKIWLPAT

## O=C1NC(=O)/C(=C/c2ccc3nccc(-c4ccncc4)c3c2)S1
CHEK1 (human)
  kinase still bound, per cent of control: 57%
PIM3 (human)
  kinase still bound, per cent of control: 2.4%
[1]
  kinase still bound, per cent of control: 0%
DYRK2 (human)
  kinase still bound, per cent of control: 5.4%
STK35 (human)
  kinase still bound, per cent of control: 49%
PLK1 (human)
  kinase still bound, per cent of control: 26%
CLK2 (human)
  kinase still bound, per cent of control: 0.15%
NLK (human)
  kinase still bound, per cent of control: 84%
CAMKK2 (human)
  kinase still bound, per cent of control: 2%
CaMK1 (human)
  kinase still bound, per cent of control: 65%
TAOK2 (human)
  kinase still bound, per cent of control: 50%
FRK (human)
  kinase still bound, per cent of control: 81%
CHUK (human)
  kinase still bound, per cent of control: 44%
CAMKK1 (human)
  kinase still bound, per cent of control: 12%
FLT4 (human)
  kinase still bound, per cent of control: 98%
DCLK1 (human)
  kinase still bound, per cent of control: 77%
[2]
  kinase still bound, per cent of control: 95%
MAP4K1 (human)
  kinase still bound, per cent of control: 26%
ERBB4 (human)
  kinase still bound, per cent of control: 65%
MYLK (human)
  kinase still bound, per cent of control: 19%
TEK (human)
  kinase still bound, per cent of control: 98%
CDK8 (human)
  kinase still bound, per cent of control: 7.3%
IKBKB (human)
  kinase still bound, per cent of control: 34%
SBK1 (human)
  kinase still bound, per cent of control: 73%
[3]
  kinase still bound, per cent of control: 82%
CDC42BPG (human)
  kinase still bound, per cent of control: 90%
PAK2 (human)
  kinase still bound, per cent of control: 21%
RPS6KA4 KD2 (human)
  kinase still bound, per cent of control: 63%
STK32A (human)
  kinase still bound, per cent of control: 83%
TAOK1 (human)
  kinase still bound, per cent of control: 3%
CLK1 (human)
  kinase still bound, per cent of control: 0%
EPHB4 (human)
  kinase still bound, per cent of control: 74%
PIM1 (human)
  kinase still bound, per cent of control: 1%
STK11 (human)
  kinase still bound, per cent of control: 12%
PRKAA2 (human)
  kinase still bound, per cent of control: 93%
IRAK4 (human)
  kinase still bound, per cent of control: 47%
NEK6 (human)
  kinase still bound, per cent of control: 81%
MAPK6 (human)
  kinase still bound, per cent of control: 100%
CAMK2A (human)
  kinase still bound, per cent of control: 4.8%
GRK1 (human)
  kinase still bound, per cent of control: 22%
